Assay results as given in patent US10266495B2, “Phenyl quinolinone derivatives as mutant-isocitrate dehydrogenase inhibitors” (FORMA TM2, Inc., priority 2014, dated 2019).

Tests used:
[1] = molecular target: IDH1-R132C recombinant protein (Homo sapiens, UniProt O75874, R132C); assay: IDH1-R132C enzymatic assay (NADPH consumption, diaphorase/resazurin readout); type: biochemical; conditions: read-out: Enzyme IDH1 R132C IC50 Range
Experimental: (§1) Assays were performed in a 384-well black plate. An aliquot of 250 nL of compound was incubated with 10 μL of 30 nM IDH1-R132H or 10 nM IDH1-R132C recombinant protein in assay buffer (50 mM Tris pH=7.5, 150 mM NaCl, 5 mM MgCl2, 0.1% (w/v) Bovine Serum Albumin, and 0.01% Triton X-100) in each well at 25° C. for 15 minutes. After the plate was centrifuged briefly, an aliquot of 10 μL of 2 mM α-ketoglutarate and 20 μM NADPH solution prepared in assay buffer was then added to each well and the reaction was maintained at 25° C. for 45 minutes. An aliquot of 10 μL of diaphorase solution (0.15 U/mL diaphorase and 30 μM Resazurin in assay buffer) was added to each well. […] The IC50 of a given compound was calculated by fitting the dose response curve of inhibition of NADPH consumption at a given concentration with the four parameter logistic equation.

[2] = molecular target: IDH1-R132H recombinant protein (Homo sapiens, UniProt O75874, R132H); assay: IDH1-R132H enzymatic assay (NADPH consumption, diaphorase/resazurin readout); type: biochemical; conditions: read-out: Enzyme IDH1 R132H IC50 Range
Chain of IDH1-R132H recombinant protein (O75874 whole entry R132H): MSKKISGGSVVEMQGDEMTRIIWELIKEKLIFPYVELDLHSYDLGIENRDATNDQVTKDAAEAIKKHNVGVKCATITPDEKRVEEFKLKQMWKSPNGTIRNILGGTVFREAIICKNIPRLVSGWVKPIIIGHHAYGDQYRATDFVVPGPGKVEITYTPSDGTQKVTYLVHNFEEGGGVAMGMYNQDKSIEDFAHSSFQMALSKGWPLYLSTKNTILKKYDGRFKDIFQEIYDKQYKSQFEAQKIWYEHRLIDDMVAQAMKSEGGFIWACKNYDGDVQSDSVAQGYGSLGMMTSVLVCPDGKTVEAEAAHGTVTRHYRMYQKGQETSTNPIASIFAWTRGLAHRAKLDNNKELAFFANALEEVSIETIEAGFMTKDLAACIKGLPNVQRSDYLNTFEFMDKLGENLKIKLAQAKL
Experimental: as §1

Chain of IDH1-R132C recombinant protein (O75874 whole entry R132C): as the sequence (O75874 whole entry R132H) above, with H132C counted along it

| Structure (SMILES) | IC50 [1] | IC50 [2] |
| --- | --- | --- |
| COc1cc(NCc2cc3cc(C(C)(C)C)ccc3[nH]c2=O)ccc1C#N [Compound I-24, 4-{[(6-tert-butyl-2-oxo-1,2-dihydroquinolin-3-yl)methyl]amino}-2-methoxybenzonitrile] | > 1000 nM | 10 to 100 nM |
| COc1cc(NCc2cc3cc(Cl)c(OC4CCN(C)CC4)cc3[nH]c2=O)ccc1C#N [Compound I-66, 4-[({6-chloro-7-[(1-methylpiperidin-4-yl)oxy]-2-oxo-1,2-dihydroquinolin-3-yl}methyl)amino]-2-methoxybenzonitrile] | > 1000 nM | 10 to 100 nM |
| COc1cc(NCc2cc3cc(Cl)ccc3[nH]c2=O)ccc1-n1cnnn1 [Compound I-33, 6-chloro-3-({[3-methoxy-4-(1H-1,2,3,4-tetrazol-1-yl)phenyl]amino}methyl)-1,2-dihydroquinolin-2-one] | > 1000 nM | 100 to 1000 nM |
| COc1cc(NCc2cc3cc(Cl)cc(OCc4ccccn4)c3[nH]c2=O)ccc1C#N [Compound I-98, 4-({[6-chloro-2-oxo-8-(pyridin-2-ylmethoxy)-1,2-dihydroquinolin-3-yl]methyl}amino)-2-methoxybenzonitrile] | > 1000 nM | 10 to 100 nM |
| Cc1nnnn1-c1ccc(NCc2cc3cc(Cl)ccc3[nH]c2=O)cc1 [Compound I-38, 6-chloro-3-({[4-(5-methyl-1H-1,2,3,4-tetrazol-1-yl)phenyl]amino}methyl)-1,2-dihydroquinolin-2-one] | > 1000 nM | 100 to 1000 nM |
| COc1cc(NCc2cc3cc(F)ccc3[nH]c2=O)ccc1C#N [Compound I-27, 4-{[(6-fluoro-2-oxo-1,2-dihydroquinolin-3-yl)methyl]amino}-2-methoxybenzonitrile] | > 1000 nM | > 1000 nM |
| COc1cc(NCc2cc3ccc(C)cc3[nH]c2=O)ccc1-n1cnnn1 [Compound I-22, 3-({[3-methoxy-4-(1H-1,2,3,4-tetrazol-1-yl)phenyl]amino}methyl)-7-methyl-1,2-dihydroquinolin-2-one] | > 1000 nM | 100 to 1000 nM |
| COc1cc(NCc2cc3cc(Cl)cc(OC)c3[nH]c2=O)ccc1C#N [Compound I-97, 4-{[(6-chloro-8-methoxy-2-oxo-1,2-dihydroquinolin-3-yl)methyl]amino}-2-methoxybenzonitrile] | > 1000 nM | 100 to 1000 nM |
| COc1cc(NC(C)c2cc3cc(Cl)c(OCc4ccccn4)cc3[nH]c2=O)ccc1C#N (stereo not shown) [Compound I-5, 4-({1-[6-chloro-2-oxo-7-(pyridin-2-ylmethoxy)-1,2-dihydroquinolin-3-yl]ethyl}amino)-2-methoxybenzonitrile] | 100 to 1000 nM | 10 to 100 nM |
| COc1cc(NCc2cc3cc(Cl)c(OCCN4CCN(S(C)(=O)=O)CC4)cc3[nH]c2=O)ccc1C#N [Compound I-64, 4-[({6-chloro-7-[2-(4-methanesulfonylpiperazin-1-yl)ethoxy]-2-oxo-1,2-dihydroquinolin-3-yl}methyl)amino]-2-methoxybenzonitrile] | 100 to 1000 nM | 10 to 100 nM |
| Cc1cc(NCc2cc3cc(Cl)ccc3[nH]c2=O)ccc1C#N [Compound I-36, 4-{[(6-chloro-2-oxo-1,2-dihydroquinolin-3-yl)methyl]amino}-2-methylbenzonitrile] | > 1000 nM | 100 to 1000 nM |
| COc1cc(NCc2cc3cc(Cl)cc(C)c3[nH]c2=O)ccc1C#N [Compound I-95, 4-{[(6-chloro-8-methyl-2-oxo-1,2-dihydroquinolin-3-yl)methyl]amino}-2-methoxybenzonitrile] | > 1000 nM | 100 to 1000 nM |
| O=c1[nH]c2ccccc2cc1CNc1ccc(-n2cnnn2)cc1 [Compound I-49, 3-({[4-(1H-1,2,3,4-tetrazol-1-yl)phenyl]amino}methyl)-1,2-dihydroquinolin-2-one] | – | > 1000 nM |

Next, values leading:

| IC50 [1] | IC50 [2] | Structure (SMILES) |
| --- | --- | --- |
| > 1000 nM | 10 to 100 nM | COc1cc(NCc2cc3cc(Cl)c(OCc4cccnc4)cc3[nH]c2=O)ccc1C#N [Compound I-62, 4-({[6-chloro-2-oxo-7-(pyridin-3-ylmethoxy)-1,2-dihydroquinolin-3-yl]methyl}amino)-2-methoxybenzonitrile] |
| 100 to 1000 nM | – | COc1cc(NCc2cc3cc(Cl)c(OCCN4CCOCC4)cc3[nH]c2=O)ccc1C#N [Compound I-60, 4-[({6-chloro-7-[2-(morpholin-4-yl)ethoxy]-2-oxo-1,2-dihydroquinolin-3-yl}methyl)amino]-2-methoxybenzonitrile] |
| > 1000 nM | 10 to 100 nM | COc1cc(NCc2cc3cc(Cl)c(OCC4CCOCC4)cc3[nH]c2=O)ccc1C#N [Compound I-63, 4-({[6-chloro-7-(oxan-4-ylmethoxy)-2-oxo-1,2-dihydroquinolin-3-yl]methyl}amino)-2-methoxybenzonitrile] |
| 100 to 1000 nM | 10 to 100 nM | COc1cc(NCc2cc3cc(Cl)c(OCCn4ccnc4C)cc3[nH]c2=O)ccc1C#N [Compound I-90, 4-[({6-chloro-7-[2-(2-methyl-1H-imidazol-1-yl)ethoxy]-2-oxo-1,2-dihydroquinolin-3-yl}methyl)amino]-2-methoxybenzonitrile] |
| > 1000 nM | 100 to 1000 nM | COc1cc(NCc2cc3cc(Cl)c(OCCCN(C)C)cc3[nH]c2=O)ccc1C#N [Compound I-82, 4-[({6-chloro-7-[3-(dimethylamino)propoxy]-2-oxo-1,2-dihydroquinolin-3-yl}methyl)amino]-2-methoxybenzonitrile] |
| > 1000 nM | 100 to 1000 nM | COc1cc(NCc2cc3cc(Cl)c(OCCCN4CCCCC4)cc3[nH]c2=O)ccc1C#N [Compound I-84, 4-[({6-chloro-2-oxo-7-[3-(piperidin-1-yl)propoxy]-1,2-dihydroquinolin-3-yl}methyl)amino]-2-methoxybenzonitrile] |
| > 1000 nM | 10 to 100 nM | COc1cc(NCc2cc3cc(Cl)c(OCC4CCCCN4C)cc3[nH]c2=O)ccc1C#N (stereo not shown) [Compound I-72, 4-[({6-chloro-7-[(1-methylpiperidin-2-yl)methoxy]-2-oxo-1,2-dihydroquinolin-3-yl}methyl)amino]-2-methoxybenzonitrile] |
| > 1000 nM | 10 to 100 nM | COc1cc(NCc2cc3cc(Cl)c(OCCN(C)C)cc3[nH]c2=O)ccc1C#N [Compound I-61, 4-[({6-chloro-7-[2-(dimethylamino)ethoxy]-2-oxo-1,2-dihydroquinolin-3-yl}methyl)amino]-2-methoxybenzonitrile] |
| 100 to 1000 nM | 10 to 100 nM | COc1cc(NCc2cc3cc(Cl)c(OCc4nc(C(N)=O)no4)cc3[nH]c2=O)ccc1C#N [Compound I-79, 5-{[(6-chloro-3-{[(4-cyano-3-methoxyphenyl)amino]methyl}-2-oxo-1,2-dihydroquinolin-7-yl)oxy]methyl}-1,2,4-oxadiazole-3-carboxamide] |
| > 1000 nM | 100 to 1000 nM | COc1cc(NCc2cc3cc(Cl)c(OCc4ccncc4)cc3[nH]c2=O)ccc1C#N [Compound I-74, 4-({[6-chloro-2-oxo-7-(pyridin-4-ylmethoxy)-1,2-dihydroquinolin-3-yl]methyl}amino)-2-methoxybenzonitrile] |
| > 1000 nM | 10 to 100 nM | COc1cc2[nH]c(=O)c(CNc3ccc(C#N)c(OC)c3)cc2cc1F [Compound I-26, 4-{[(6-fluoro-7-methoxy-2-oxo-1,2-dihydroquinolin-3-yl)methyl]amino}-2-methoxybenzonitrile] |
| > 1000 nM | 100 to 1000 nM | COc1cc(NCc2cc3cc(Cl)c(OCC4CCS(=O)(=O)CC4)cc3[nH]c2=O)ccc1C#N [Compound I-75, 4-[({6-chloro-7-[(1,1-dioxo-1λ^6-thian-4-yl)methoxy]-2-oxo-1,2-dihydroquinolin-3-yl}methyl)amino]-2-methoxybenzonitrile] |
| > 1000 nM | 10 to 100 nM | COc1cc(NCc2cc3cc(Cl)c(OCCN4CCN(C)CC4)cc3[nH]c2=O)ccc1C#N [Compound I-88, 4-[({6-chloro-7-[2-(4-methylpiperazin-1-yl)ethoxy]-2-oxo-1,2-dihydroquinolin-3-yl}methyl)amino]-2-methoxybenzonitrile] |
| > 1000 nM | 10 to 100 nM | COc1cc(NCc2cc3cc(Cl)c(OCCc4ccncc4)cc3[nH]c2=O)ccc1C#N [Compound I-81, 4-[({6-chloro-2-oxo-7-[2-(pyridin-4-yl)ethoxy]-1,2-dihydroquinolin-3-yl}methyl)amino]-2-methoxybenzonitrile] |
| 100 to 1000 nM | 10 to 100 nM | COc1cc(NCc2cc3cc(Cl)c(OCc4cc(C)n(C)n4)cc3[nH]c2=O)ccc1C#N [Compound I-70, 4-[({6-chloro-7-[(1,5-dimethyl-1H-pyrazol-3-yl)methoxy]-2-oxo-1,2-dihydroquinolin-3-yl}methyl)amino]-2-methoxybenzonitrile] |
| > 1000 nM | 100 to 1000 nM | COc1cc(NCc2cc3cc(Cl)c(OCCn4nc(C)cc4C)cc3[nH]c2=O)ccc1C#N [Compound I-92, 4-[({6-chloro-7-[2-(3,5-dimethyl-1H-pyrazol-1-yl)ethoxy]-2-oxo-1,2-dihydroquinolin-3-yl}methyl)amino]-2-methoxybenzonitrile] |
| > 1000 nM | 100 to 1000 nM | COc1cc(NCc2cc3cc(Cl)c(OCC(O)CN4CCOCC4)cc3[nH]c2=O)ccc1C#N (stereo not shown) [Compound I-59, 4-[({6-chloro-7-[2-hydroxy-3-(morpholin-4-yl)propoxy]-2-oxo-1,2-dihydroquinolin-3-yl}methyl)amino]-2-methoxybenzonitrile] |
